Data: ChEMBL document CHEMBL1121386, “Synthesis and analgesic activity of some 14 beta-substituted analogues of morphine” (1980)

Species on record: Cavia porcellus
Assay: Tested for analgesic activity in the guinea pig ileum preparation relative to normorphine (1)
Format: functional

SMILES	Relative activity
CN1CCC23c4c5ccc(O)c4O[C@H]2C(=O)C=C[C@@]3(Cl)C1C5 (stereo partly specified)	0.5
CN1CCC23c4c5ccc(O)c4O[C@H]2C(=O)C=C[C@@]3([N+](=O)[O-])C1C5 (stereo partly specified)	0.006
CN1CCC23c4c5ccc(O)c4O[C@H]2C(=O)C=C[C@@]3(Br)C1C5 (stereo partly specified)	0.4
CN1CCC23c4c5ccc(O)c4O[C@H]2[C@@H](O)C=C[C@@]3(O)C1C5 (stereo partly specified)	0.8
CC(=O)N[C@@]12C=C[C@H](OC(C)=O)[C@@H]3Oc4c(O)ccc5c4C31CCN(C)C2C5 (stereo partly specified)	0.6
CN1CCC23c4c5ccc(O)c4O[C@H]2[C@@H](O)C=C[C@@]3(S)C1C5 (stereo partly specified)	0.4
